Data taken from US20250144047A1, “PHARMACEUTICAL COMPOSITION FOR PREVENTING, AMELIORATING, OR TREATING CANCER CONTAINING 8-PARADOL” (KDBIO CORP., priority 2022, published 2025).

Columns and labels:
[1] = tested on: AGS xenograft tumor tissue; assay: Western blot of tumor tissue of xenograft mice; format: in vivo
Method: For whole protein extraction, AGS cells were processed with samples at various concentrations for 24 hours. The cells were dissolved using Pierce™ RIPA buffer (Thermo Fisher Scientific, Rockford, IL, USA) together with protease inhibitor cocktail (GenDEPOT, TX, USA). The cell-dissolved solution formed in the above manner was centrifuged at 12,000 rpm for 20 minutes. The protein was loaded into a 10% SDS-PAGE gel using a protein gel electrophoresis chamber system and transferred to a PVDF membrane (Thermo Fisher Scientific, Rockford, IL, USA). A PBST solution containing 5% skim milk was used to block the membrane at 25° C. for 1 hour. Then, the membrane was incubated overnight at 4° C. with primary antibodies. Finally, the membrane was incubated with the secondary antibodies at 25° C. for 1 hour, and a protein band was detected using West-Q Pico ECL Solution (GenDEPOT, TX, USA). The results were quantified using ImageJ software.
Each mouse was orally administered with 8-paradol and 5-FU once a day for a total of 16 days. The control group was administered with only 0.9% of general saline during this period. Body weights and tumor volumes of the mice were measured daily in all mice during the study period. All mice were euthanized after the end of the experiments. Blood, liver, spleen, kidney, and tumor tissues were extracted and weighed. In order to obtain the protein of tumor tissue, a portion of the tissue was processed with RIPA buffer containing a protease inhibitor cocktail. Then, the expression degree of a specific protein (determined by Western blot) was determined.

RAW 264.7 cells = format: cell-based
Method: AGS cells were grown in RPMI medium containing 10% FBS and 1% PS. HEK293 and RAW264.7 cells were grown in DMEM medium containing 10% FBS and 1% PS under conditions of 37° C., 5% CO2 and 95% air.
In order to evaluate toxicity to each cell, the sample was incubated in each cell (1×10^5 cells/well) cultured in the above manner for 24 hours, and then cytotoxicity to each cell was examined by using the MTT assay.

[2] = tested on: AGS xenograft tumor tissue; assay: IHC staining of tumor tissue; format: in vivo; conditions: tumor tissue of administered mice
Method: The tumor tissue was fixed with 10% formalin and embedded with paraffin. Immunohistochemical (IHC) staining was performed using a mouse and rabbit-specific HRP/DAB (ABC) detection IHC kit (Abcam, Cambridge, MA, USA). The tissue was observed through an optical microscope, and the presence of a specific protein in the tumor tissue was determined to be the presence of a brown yellow color. The results were evaluated using ImageJ software.

AGS cells [3] = assay: Live/dead cell staining of AGS cells; format: cell-based, human; conditions: 24 hours
Method: (§1) Live/dead cells were stained using a live/dead cell staining kit (Thermo Fisher Scientific, Rockford, IL, USA). Specifically, apoptosis was induced by processing AGS cells (2×10^5 cells/well) as a sample for 24 hours. After staining the cells for 30 minutes using the staining kit, the cells were observed using a Leica DM IRB fluorescence microscope (Wetzlar, Germany). In addition, for the colony formation assay, AGS cells were cultured at a density of 500 cells/well and then processed with the sample. Then, the cells were stained with 0.5% crystal violet (Sigma-Aldrich, St. Louis, MO, USA) for 15 minutes […], and then the stained colonies were observed and quantified using ImageJ.

AGS cells [4] = assay: ATP fluorescence assay in AGS cells; format: cell-based, human
Source text: The ATP degree of the sample-processed AGS cells were detected according to the manufacturer's instructions by using an ATP fluorescence assay kit (Biovision, Milpitas, CA, USA).

AGS cells [5] = assay: Colony formation assay of AGS cells; format: cell-based, human; conditions: 5-FU positive control
Method: as §1

With CCCCCCCCCC(=O)CCc1ccc(O)c(OC)c1 [Purified Compound 3, 8-paradol] as the compound, how does the “expression degrees of p62 and Bcl-2 proteins” value ([1]; tumor tissue) read?
The value was “significantly decreased”.

What about the “mitophagy-related proteins LC3, Pink1 and Parkin in tumor tissue” value ([1]; tumor tissue of processed mice) of the same compound?
Its value is “significantly increased in a dose-dependent manner”.

And the “apoptosis-related proteins Bax, Cytochrome-c, Cleaved-caspase-3/caspase-3 and Cleaved-caspase-9/caspase-9” value ([1]; tumor tissue, compared to control group)?
The value was “significantly increased”.

And the “cytotoxicity to normal cells RAW 264.7” value (RAW 264.7 cells)?
The value was “did not express significant cytotoxicity”.

And the “density of LC3 and caspase-3 in tumor tissue” value [2]?
The value was “increased”.

And the “cytotoxicity on AGS cells by cell morphology and live/dead cell staining” value (AGS cells [3])?
The value was “strong cytotoxicity”.

And the “ATP loss induced by 8-paradol” value (AGS cells [4]; 8-paradol with CQ (inhibiting mitophagy))?
Its value is “reduced”.

What about the “ATP concentration in AGS cells” value (AGS cells [4]; AGS cells) of the same compound?
The value was “reduced”.

What about the “colony formation ability compared with 5-FU-processed AGS cells” value (AGS cells [5]) of the same compound?
Its value is “significantly inhibited”.
